Tests used:
Conditions in all cases: 72 h
[1] = system: U2OS; assay: cell viability relative to DMSO; higher = less toxic
[2] = system: HepG2; assay: as above
[3] = system: Caco-2; assay: as above
[4] = system: Vero E6; assay: as above
[5] = system: Calu-3; assay: as above
[6] = system: U2OS; assay: relative viability EC50 (midpoint between 100% and the lowest measured viability); higher = less toxic
[7] = system: HepG2; assay: as above
[8] = system: Caco-2; assay: as above
[9] = system: Vero E6; assay: as above
[10] = system: Calu-3; assay: as above
[11] = system: U2OS; assay: drug sensitivity score (DSS) for viability; higher = more toxic; extreme values may be limits of the assay
[12] = system: HepG2; assay: as above
[13] = system: Caco-2; assay: as above
[14] = system: Vero E6; assay: as above
[15] = system: Calu-3; assay: as above

## Cc1ccc2c(Cl)cc(Cl)c(O)c2n1 [chlorquinaldol]
[1]; 1 nM
  cell viability: 96.8%
[1]; 10 nM
  cell viability: 102%
[1]; 100 nM
  cell viability: 97.8%
[1]; 1000 nM
  cell viability: 102%
[1]; 10000 nM
  cell viability: 100%
[2]; 1 nM
  cell viability: 89.3%
[2]; 10 nM
  cell viability: 95.5%
[2]; 100 nM
  cell viability: 99.1%
[2]; 1000 nM
  cell viability: 84.4%
[2]; 10000 nM
  cell viability: 108%
[3]; 1 nM
  cell viability: 107%
[3]; 10 nM
  cell viability: 91.3%
[3]; 100 nM
  cell viability: 96.7%
[3]; 1000 nM
  cell viability: 91.4%
[3]; 10000 nM
  cell viability: 103%
[4]; 1 nM
  cell viability: 93.3%
[4]; 10 nM
  cell viability: 88.9%
[4]; 100 nM
  cell viability: 99.2%
[4]; 1000 nM
  cell viability: 86.6%
[4]; 10000 nM
  cell viability: 103%
[5]; 1 nM
  cell viability: 92.4%
[5]; 10 nM
  cell viability: 99.9%
[5]; 100 nM
  cell viability: 84.2%
[5]; 1000 nM
  cell viability: 86.9%
[5]; 10000 nM
  cell viability: 108%
[6]
  relative viability EC50: > 10 µM
[7]
  relative viability EC50: > 10 µM
[8]
  relative viability EC50: > 10 µM
[9]
  relative viability EC50: > 10 µM
[10]
  relative viability EC50: > 10 µM
[11]
  drug sensitivity score: 0
[12]
  drug sensitivity score: 0
[13]
  drug sensitivity score: 0
[14]
  drug sensitivity score: 0
[15]
  drug sensitivity score: 0

## N#C/C(=C1/SC[C@@H](c2ccc(Cl)cc2Cl)S1)n1ccnc1 [luliconazole]
[1]; 1 nM
  cell viability: 100%
[1]; 10 nM
  cell viability: 100%
[1]; 100 nM
  cell viability: 98.9%
[1]; 1000 nM
  cell viability: 96.7%
[1]; 10000 nM
  cell viability: 96.9%
[2]; 1 nM
  cell viability: 104%
[2]; 10 nM
  cell viability: 105%
[2]; 100 nM
  cell viability: 97.5%
[2]; 1000 nM
  cell viability: 105%
[2]; 10000 nM
  cell viability: 96%
[3]; 1 nM
  cell viability: 102%
[3]; 10 nM
  cell viability: 98.1%
[3]; 100 nM
  cell viability: 96.7%
[3]; 1000 nM
  cell viability: 90.6%
[3]; 10000 nM
  cell viability: 89.7%
[4]; 1 nM
  cell viability: 101%
[4]; 10 nM
  cell viability: 99%
[4]; 100 nM
  cell viability: 93.8%
[4]; 1000 nM
  cell viability: 102%
[4]; 10000 nM
  cell viability: 94.5%
[5]; 1 nM
  cell viability: 95.8%
[5]; 10 nM
  cell viability: 109%
[5]; 100 nM
  cell viability: 96.8%
[5]; 1000 nM
  cell viability: 95.7%
[5]; 10000 nM
  cell viability: 89.6%
[6]
  relative viability EC50: > 10 µM
[7]
  relative viability EC50: > 10 µM
[8]
  relative viability EC50: > 10 µM
[9]
  relative viability EC50: > 10 µM
[10]
  relative viability EC50: > 10 µM
[11]
  drug sensitivity score: 0
[12]
  drug sensitivity score: 0
[13]
  drug sensitivity score: 0
[14]
  drug sensitivity score: 0
[15]
  drug sensitivity score: 0

## CCCCCCCCCCCCCCCCCCOP(=O)([O-])OC1CC[N+](C)(C)CC1 [perifosine]
[1]; 1 nM
  cell viability: 98.7%
[1]; 10 nM
  cell viability: 95.2%
[1]; 100 nM
  cell viability: 103%
[1]; 1000 nM
  cell viability: 95%
[1]; 10000 nM
  cell viability: 99.2%
[2]; 1 nM
  cell viability: 96.2%
[2]; 10 nM
  cell viability: 96%
[2]; 100 nM
  cell viability: 97.7%
[2]; 1000 nM
  cell viability: 106%
[2]; 10000 nM
  cell viability: 112%
[3]; 1 nM
  cell viability: 96.4%
[3]; 10 nM
  cell viability: 90.9%
[3]; 100 nM
  cell viability: 100%
[3]; 1000 nM
  cell viability: 96.5%
[3]; 10000 nM
  cell viability: 106%
[4]; 1 nM
  cell viability: 92.7%
[4]; 10 nM
  cell viability: 98.9%
[4]; 100 nM
  cell viability: 93.6%
[4]; 1000 nM
  cell viability: 96.5%
[4]; 10000 nM
  cell viability: 101%
[5]; 1 nM
  cell viability: 106%
[5]; 10 nM
  cell viability: 98%
[5]; 100 nM
  cell viability: 106%
[5]; 1000 nM
  cell viability: 86.8%
[5]; 10000 nM
  cell viability: 95.4%
[6]
  relative viability EC50: > 10 µM
[7]
  relative viability EC50: > 10 µM
[8]
  relative viability EC50: > 10 µM
[9]
  relative viability EC50: > 10 µM
[10]
  relative viability EC50: > 10 µM
[11]
  drug sensitivity score: 0
[12]
  drug sensitivity score: 0
[13]
  drug sensitivity score: 0
[14]
  drug sensitivity score: 0
[15]
  drug sensitivity score: 0.8

## Cc1c(F)cccc1NC(=O)Nc1ccc(Cl)c(S(=O)(=O)[C@H]2CCCNC2)c1O [danirixin]
[1]; 1 nM
  cell viability: 99%
[1]; 10 nM
  cell viability: 104%
[1]; 100 nM
  cell viability: 95.4%
[1]; 1000 nM
  cell viability: 98.8%
[1]; 10000 nM
  cell viability: 98.8%
[2]; 1 nM
  cell viability: 94.8%
[2]; 10 nM
  cell viability: 93.1%
[2]; 100 nM
  cell viability: 103%
[2]; 1000 nM
  cell viability: 94.7%
[2]; 10000 nM
  cell viability: 106%
[3]; 1 nM
  cell viability: 99.3%
[3]; 10 nM
  cell viability: 104%
[3]; 100 nM
  cell viability: 93.4%
[3]; 1000 nM
  cell viability: 99.4%
[3]; 10000 nM
  cell viability: 95.9%
[4]; 1 nM
  cell viability: 106%
[4]; 10 nM
  cell viability: 106%
[4]; 100 nM
  cell viability: 106%
[4]; 1000 nM
  cell viability: 98.2%
[4]; 10000 nM
  cell viability: 100%
[5]; 1 nM
  cell viability: 84.6%
[5]; 10 nM
  cell viability: 88.3%
[5]; 100 nM
  cell viability: 91.8%
[5]; 1000 nM
  cell viability: 93.1%
[5]; 10000 nM
  cell viability: 95.6%
[6]
  relative viability EC50: > 10 µM
[7]
  relative viability EC50: > 10 µM
[8]
  relative viability EC50: > 10 µM
[9]
  relative viability EC50: > 10 µM
[10]
  relative viability EC50: > 10 µM
[11]
  drug sensitivity score: 0
[12]
  drug sensitivity score: 0
[13]
  drug sensitivity score: 0
[14]
  drug sensitivity score: 0
[15]
  drug sensitivity score: 0

## O=C(O)CCNc1cc(N2CCc3ccccc3CC2)nc(-c2ccccn2)n1 [GSK-J1]
[1]; 1 nM
  cell viability: 90.4%
[1]; 10 nM
  cell viability: 100%
[1]; 100 nM
  cell viability: 91.9%
[1]; 1000 nM
  cell viability: 98.6%
[1]; 10000 nM
  cell viability: 102%
[2]; 1 nM
  cell viability: 109%
[2]; 10 nM
  cell viability: 89.9%
[2]; 100 nM
  cell viability: 113%
[2]; 1000 nM
  cell viability: 101%
[2]; 10000 nM
  cell viability: 91.3%
[3]; 1 nM
  cell viability: 91.6%
[3]; 10 nM
  cell viability: 92.4%
[3]; 100 nM
  cell viability: 100%
[3]; 1000 nM
  cell viability: 99.7%
[3]; 10000 nM
  cell viability: 104%
[4]; 1 nM
  cell viability: 102%
[4]; 10 nM
  cell viability: 94.8%
[4]; 100 nM
  cell viability: 96.2%
[4]; 1000 nM
  cell viability: 95.2%
[4]; 10000 nM
  cell viability: 102%
[5]; 1 nM
  cell viability: 97.5%
[5]; 10 nM
  cell viability: 93.3%
[5]; 100 nM
  cell viability: 97.9%
[5]; 1000 nM
  cell viability: 104%
[5]; 10000 nM
  cell viability: 111%
[6]
  relative viability EC50: > 10 µM
[7]
  relative viability EC50: > 10 µM
[8]
  relative viability EC50: > 10 µM
[9]
  relative viability EC50: > 10 µM
[10]
  relative viability EC50: > 10 µM
[11]
  drug sensitivity score: 0
[12]
  drug sensitivity score: 0
[13]
  drug sensitivity score: 0
[14]
  drug sensitivity score: 0
[15]
  drug sensitivity score: 0

## Cn1c(=O)c2c(ncn2CC(O)CO)n(C)c1=O (stereo not given) [dyphylline]
[1]; 1 nM
  cell viability: 107%
[1]; 10 nM
  cell viability: 108%
[1]; 100 nM
  cell viability: 105%
[1]; 1000 nM
  cell viability: 98.8%
[1]; 10000 nM
  cell viability: 110%
[2]; 1 nM
  cell viability: 102%
[2]; 10 nM
  cell viability: 106%
[2]; 100 nM
  cell viability: 97.1%
[2]; 1000 nM
  cell viability: 107%
[2]; 10000 nM
  cell viability: 104%
[3]; 1 nM
  cell viability: 104%
[3]; 10 nM
  cell viability: 110%
[3]; 100 nM
  cell viability: 104%
[3]; 1000 nM
  cell viability: 98.9%
[3]; 10000 nM
  cell viability: 107%
[4]; 1 nM
  cell viability: 100%
[4]; 10 nM
  cell viability: 102%
[4]; 100 nM
  cell viability: 105%
[4]; 1000 nM
  cell viability: 98.7%
[4]; 10000 nM
  cell viability: 105%
[5]; 1 nM
  cell viability: 92.7%
[5]; 10 nM
  cell viability: 99.6%
[5]; 100 nM
  cell viability: 109%
[5]; 1000 nM
  cell viability: 96.4%
[5]; 10000 nM
  cell viability: 101%
[6]
  relative viability EC50: > 10 µM
[7]
  relative viability EC50: > 10 µM
[8]
  relative viability EC50: > 10 µM
[9]
  relative viability EC50: > 10 µM
[10]
  relative viability EC50: > 10 µM
[11]
  drug sensitivity score: 0
[12]
  drug sensitivity score: 0
[13]
  drug sensitivity score: 0
[14]
  drug sensitivity score: 0
[15]
  drug sensitivity score: 0

From the supplement of paper PMC13380429
